The values that follow come from ChEMBL document CHEMBL2074216, “Novel camptothecin analogues that circumvent ABCG2-associated drug resistance in human tumor cells” (Int J Cancer, 2004).

The target of this data set is T1, Broad substrate specificity ATP-binding cassette transporter ABCG2 (Homo sapiens, UniProt Q9UNQ0).
T1 sequence (Q9UNQ0 whole entry): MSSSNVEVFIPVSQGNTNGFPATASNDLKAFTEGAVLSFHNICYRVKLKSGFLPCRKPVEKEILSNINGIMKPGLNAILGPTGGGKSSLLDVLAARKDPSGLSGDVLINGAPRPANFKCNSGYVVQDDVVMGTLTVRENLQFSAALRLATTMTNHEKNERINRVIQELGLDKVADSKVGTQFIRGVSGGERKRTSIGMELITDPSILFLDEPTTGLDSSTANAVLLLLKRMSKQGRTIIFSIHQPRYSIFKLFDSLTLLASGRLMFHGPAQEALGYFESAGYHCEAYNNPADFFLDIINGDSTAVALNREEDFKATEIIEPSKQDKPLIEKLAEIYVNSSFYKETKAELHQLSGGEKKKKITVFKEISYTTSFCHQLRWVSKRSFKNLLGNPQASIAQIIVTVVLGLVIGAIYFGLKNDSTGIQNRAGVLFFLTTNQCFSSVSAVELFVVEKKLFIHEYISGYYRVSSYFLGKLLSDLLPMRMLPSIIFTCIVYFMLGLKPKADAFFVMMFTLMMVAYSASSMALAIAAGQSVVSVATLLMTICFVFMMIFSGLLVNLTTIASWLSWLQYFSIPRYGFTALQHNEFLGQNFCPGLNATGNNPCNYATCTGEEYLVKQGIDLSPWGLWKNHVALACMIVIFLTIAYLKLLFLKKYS
In words: TP_TRANSPORTER: uptake in BCRP-expressing PC-6 cells. The format is functional, cell-based.

As for `CCc1c2c(nc3ccc(O)cc13)-c1cc3c(c(=O)n1C2)COC(=O)[C@]3(O)CC` [7-ETHYL-10-HYDROXYCAMPTOTHECIN], the Activity result was “substrate []”.
For `CCc1c2c(nc3ccc(Cl)cc13)-c1cc3c(c(=O)n1C2)COC(=O)[C@]3(O)CC`, the Activity entry was “substrate []”.
As to `CCc1c2c(nc3cc(Br)ccc13)-c1cc3c(c(=O)n1C2)COC(=O)[C@]3(O)CC`, the Activity result was “substrate []”.
Regarding `CCc1c2c(nc3cc(F)c(O)cc13)-c1cc3c(c(=O)n1C2)COC(=O)[C@]3(O)CC`, the Activity entry was “substrate []”.
On to `CCc1c2c(nc3ccc(N)cc13)-c1cc3c(c(=O)n1C2)COC(=O)[C@]3(O)CC`, for which the Activity entry was “substrate []”.
Take `CCc1c2c(nc3cc(F)c(OC)cc13)-c1cc3c(c(=O)n1C2)COC(=O)[C@]3(O)CC`: the Activity entry was “substrate []”.
For `CCc1c2c(nc3cc(O)ccc13)-c1cc3c(c(=O)n1C2)COC(=O)[C@]3(O)CC`, the Activity entry was “substrate []”.
